Data reported in US7357835B2, “Production of crystalline materials by using high intensity ultrasound” (Accentus PLC, priority 2002, dated 2008).

Tests used:
[1] = Effect of ultrasound on crystallisation of aqueous D-xylose solution cooled at 0.2 K/min; type: physicochemical; conditions: for temperature T at which solid first appeared: solution saturated at 50° C.
Excerpt: Referring to the drawing, a batch crystallisation irradiator 10 includes a stainless-steel vessel 12 of internal diameter 0.31 m and of wall thickness 2 mm. To the outside of the wall are attached sixty transducer modules 14 closely packed in a square array. Each transducer module 14 comprises a 50 W piezoelectric transducer 16 which resonates at 20 kHz, attached to a conically flared titanium coupling block 18 by which it is connected to the wall, the wider end of each block being of diameter 63 mm. The transducer modules define five circumferential rings each of twelve modules 14, the centres of the coupling blocks 18 being on a square pitch of 82 mm. The irradiator 10 also incorporates three signal generators 20 (only one is shown) each of which drives the transducers 16 in a pair of adjacent longitudinal rows and another such pair of rows one third of the circumference apart from the first pair.
Consequently the solution will become saturated and then supersaturated. When the temperature is about 10° C. below that at which saturation occurs, the transducers are energized briefly, each generator 20 being energized for 0.8 s successively. Each transducer irradiates 50 W over a circle of diameter 63 mm, that is an intensity of 1.6 W/cm^2. The ultrasonic energy is dissipated over the cylindrical volume of the vessel 12, which is about 31 litres, so if all the transducers 16 were energised simultaneously the power density would be about 100 W/litre. To avoid focusing, only one signal generator 20 is energized at any one time, so the energy deposition is about 33 W/litre. After 0.8 s, a different generator 20 is energized, and so on. After 2.4 s each transducer has been energized, and application of ultrasound is terminated. The contents of the vessel 12 are then inspected, to see if any crystals have formed. If there are no crystals this activation procedure is repeated.
When they are activated, the signal generators 20 generate signals at a frequency that varies between 19.5 and 20.5 kHz, the signals from different signal generators 20 varying independently of each other. The frequency of each signal generator 20 varies sinusoidally with time between those frequency limits, at a frequency of 10 Hz.
(§1) An experiment to investigate the effect of ultrasound on crystallisation has been performed, as follows. An aqueous solution of D-xylose containing 25 g D-xylose per 10 ml water was prepared, which would be saturated at 50° C. This was than cooled at a rate of 0.2 K/min to 20° C., and the resulting solid products were separated and isolated. […] If the transducers 14 were energized for a period of 2 minutes, starting at 46° C., then crystals appeared at 43° C. If the transducers 14 were energized continuously, starting at 50° C., then the resulting crystals were very small, and information on sizes was not obtained.

[2] = Saturation of aqueous D-xylose solution; type: physicochemical; conditions: saturated at 50° C.
Description: as §1

Question: Which “crystal size at 10% cumulative percentile (by mass)” value ([1]; 2 min ultrasound) does the source give for `O=C[C@H](O)[C@@H](O)[C@H](O)CO` [D-xylose] here?
Answer: 43 microns

Question: What about the “crystal size at 50% cumulative percentile (by mass)” value ([1]; 2 min ultrasound) of the same compound?
Answer: 106 microns

Question: What about the “crystal size at 90% cumulative percentile (by mass)” value ([1]; 2 min ultrasound) of the same compound?
Answer: 211 microns

Question: What about the “temperature T at which solid first appeared” value (“temperature T” below) ([1]; 2 min ultrasound starting at 46° C., cooled 0.2 K/min) of the same compound?
Answer: 43 °C

Question: And the metastable zone width ([1]; absence of ultrasound)?
Answer: about 14 K

Question: What about the metastable zone width ([1]; continuous application of ultrasound) of the same compound?
Answer: about 4 K

Question: What about the “temperature T” value ([1]; continuous ultrasound starting at 50° C., cooled 0.2 K/min) of the same compound?
Answer: 46 °C

Question: And the “crystal size at 10% cumulative percentile (by mass)” value ([1]; no ultrasound)?
Answer: 27 microns

Question: And the “crystal size at 50% cumulative percentile (by mass)” value ([1]; no ultrasound)?
Answer: 67 microns

Question: And the “crystal size at 90% cumulative percentile (by mass)” value ([1]; no ultrasound)?
Answer: 149 microns

Question: What about the “temperature T” value ([1]; no ultrasound (control), cooled 0.2 K/min to 20° C.) of the same compound?
Answer: 36 °C

Question: And the metastable zone width ([1]; short application of ultrasound)?
Answer: about 7 K

Question: And the “concentration of saturated aqueous solution” value [2]?
Answer: 25 g per 10 ml water
